{"source": "paper PMC6429183", "about": "“Identification of Compounds That Inhibit Estrogen-Related Receptor Alpha Signaling Using High-Throughput Screening Assays” (Molecules, 2019)", "key": {"[1]": {"system": "ERR reporter HEK293 cells", "assay": "CellTiter-Fluor cell viability assay multiplexed with ERR reporter assay", "type": "cell-based", "conditions": "Homo sapiens, HEK293", "outline": "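ERR or PGC/ERR reporter HEK293 cells (2500/well) were plated 6 h before compound, then incubated 18 h at 37 °C, followed by ONE-Glo luciferase read after 30 min. CellTiter-Fluor was multiplexed as a cytotoxicity counter screen, in triplicate. IC50 and efficacy came from four-parameter Hill fits of pattern-corrected qHTS data.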"}, "[2]": {"system": "PGC/ERR reporter HEK293 cells", "assay": "CellTiter-Fluor cell viability assay multiplexed with PGC/ERR reporter assay", "type": "cell-based", "conditions": "Homo sapiens"}, "COX8α": {"system": "COX8α", "assay": "qRT-PCR mRNA expression of ERR downstream gene COX8α", "type": "cell-based", "conditions": "60 nM; ERR reporter cells; vs GAPDH, DMSO = 0%", "outline": "(§1)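 Total RNA from compound-treated ERR reporter cells was reverse transcribed and analysed by TaqMan real-time PCR. Expression normalized to GAPDH, with fold induction versus control calculated as 2^ΔΔCt. Values are means of triplicates ± SD, t-test.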"}, "IDH3α": {"system": "IDH3α", "assay": "qRT-PCR mRNA expression of ERR downstream gene IDH3α", "type": "cell-based", "conditions": "60 nM; ERR reporter cells; vs GAPDH, DMSO = 0%", "outline": "as §1"}, "PPARα": {"system": "PPARα", "assay": "qRT-PCR mRNA expression of ERR downstream gene PPARα", "type": "cell-based", "conditions": "60 nM; ERR reporter cells; vs GAPDH, DMSO = 0%", "method": "Total RNA was isolated from treated ERR reporter cells using an RNeasy Mini Kit (Qiagen, Germantown, MD, USA), homogenized using a QIAshredder (Qiagen), and reverse transcribed with a High-Capacity RNA-to-cDNA™ Kit (ThermoFisher Scientific, Inc.) following the manufacturers’ instructions. Expression of ERRα, COX8α, IDH3α, PPARα, COX4I1, and cytochrome c genes was normalized against GAPDH. All primers were purchased from ThermoFisher Scientific, Inc. Real-time PCR assays were performed in 384-well plates on a QuantStudio 5 (Applied Biosystems, Foster City, CA, USA) with TaqMan™ Gene Expression Master Mix (ThermoFisher Scientific, Inc.). Induction values were calculated using the equation: Fold = 2^ΔΔCt, where ΔCt represents the differences in cycle threshold numbers between each of the target genes and GAPDH, and ΔΔCt represents the relative change in these differences between control and treatment groups. Experimental data are presented as a mean of triplicate determinations ± SD."}, "COX4I1": {"system": "COX4I1", "assay": "qRT-PCR mRNA expression of ERR downstream gene COX4I1", "type": "cell-based", "conditions": "60 nM; ERR reporter cells; vs GAPDH, DMSO = 0%", "protocol": "Total RNA was isolated from treated ERR reporter cells using an RNeasy Mini Kit (Qiagen, Germantown, MD, USA), homogenized using a QIAshredder (Qiagen), and reverse transcribed with a High-Capacity RNA-to-cDNA™ Kit (ThermoFisher Scientific, Inc.) following the manufacturers’ instructions. Expression of ERRα, COX8α, IDH3α, PPARα, COX4I1, and cytochrome c genes was normalized against GAPDH. All primers were purchased from ThermoFisher Scientific, Inc. Real-time PCR assays were performed in 384-well plates on a QuantStudio 5 (Applied Biosystems, Foster City, CA, USA) with TaqMan™ Gene Expression Master Mix (ThermoFisher Scientific, Inc.). Induction values were calculated using the equation: Fold = 2^ΔΔCt, where ΔCt represents the differences in cycle threshold numbers between each of the target genes and GAPDH, and ΔΔCt represents the relative change in these differences between control and treatment groups. […]"}, "cytochrome c": {"system": "cytochrome c", "assay": "qRT-PCR mRNA expression of ERR downstream gene cytochrome c", "type": "cell-based", "conditions": "60 nM; ERR reporter cells; vs GAPDH, DMSO = 0%", "outline": "as §1"}, "[3]": {"system": "Nrf2/antioxidant response element (ARE)", "assay": "Nrf2/ARE-HepG2 β-lactamase reporter agonist assay", "type": "cell-based", "conditions": "agonist mode, heatmap outcome", "method": "After the assay plates were incubated at 37 °C for 5–6 h, 23 nL of compounds dissolved in DMSO or positive controls were transferred to the assay plates via a Wako Pintool station (Wako). Except for ARE and p53, all other assays received 1 µL/well agonist (10 nM R1881 for AR; 0.5 and 5 nM β-estradiol for ERα and ERβ respectively; 300 µM CDCA for FXR; 50 nM Rosiglitazone for PPARγ; and 5 nM R5020 for PR) or assay medium using a Flying Reagent Dispenser (FRD). The assay plates were incubated for 16 h (AR, Nrf2/ARE, ERβ, FXR, p53, and PR), 17 h (PPARγ), or 18 h (ERα) at 37 °C, and 1 µL/well LiveBLAzer™ FRET-B/G CCF4-AM substrate (ThermoFisher Scientific, Inc.) detection mix was added using an FRD and the plates were incubated at room temperature for 2 h. […] Data were expressed as the ratio of 460/530 nm emission values."}, "[4]": {"target": "T1, ERRα with PGC-1α (PGC/ERR pathway) (Homo sapiens, UniProt P11474)", "T1 sequence (P11474 1-423)": "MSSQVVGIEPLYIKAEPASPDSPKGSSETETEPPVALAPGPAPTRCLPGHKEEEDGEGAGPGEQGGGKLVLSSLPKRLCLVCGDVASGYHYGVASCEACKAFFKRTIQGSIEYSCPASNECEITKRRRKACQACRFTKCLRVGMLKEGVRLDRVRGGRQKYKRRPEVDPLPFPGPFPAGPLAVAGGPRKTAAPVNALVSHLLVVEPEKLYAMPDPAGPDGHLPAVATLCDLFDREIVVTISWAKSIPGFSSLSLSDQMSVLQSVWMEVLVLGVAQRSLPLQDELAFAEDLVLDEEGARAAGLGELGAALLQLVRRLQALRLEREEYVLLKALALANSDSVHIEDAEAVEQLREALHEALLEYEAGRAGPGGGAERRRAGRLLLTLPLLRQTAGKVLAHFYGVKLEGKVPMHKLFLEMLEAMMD", "assay": "PGC/ERR reporter (luciferase) qHTS assay, PGC/ERR-HEK293", "conditions": "for EC50: mean ± SD, triplicate", "method": "(§2) The ERR reporter HEK293 cells were cultured in high glucose DMEM medium (ThermoFisher Scientific, Inc., Waltham, MA, USA) supplemented with 10% fetal bovine serum (FBS; ThermoFisher Scientific, Inc.), 4 mM of L-glutamine (ThermoFisher Scientific, Inc.), 1 mM of sodium pyruvate (ThermoFisher Scientific, Inc.), 100 U/mL of penicillin and 100 mg/mL of streptomycin (ThermoFisher Scientific, Inc.). PGC/ERR reporter HEK293 cells were cultured in the same medium as the ERR reporter HEK293 cells with an additional 1 μg/mL puromycin (ThermoFisher Scientific, Inc.) as the selection marker for PGC-1α expression.\n(§3) ERR or PGC/ERR reporter HEK293 cells suspended in culture medium without puromycin were dispensed at 2500 cells/5 μL/well in tissue culture–treated 1536-well white assay plates (Greiner Bio-One North America, Monroe, NC, USA) using a Thermo Scientific Multidrop Combi (ThermoFisher Scientific, Inc.). […] After the cells were incubated at 37 °C with 5% CO2 for 6 h, 23 nL of compounds or control, XTC790, was transferred into the assay plates using a Wako Pintool station (Wako Automation, San Diego, CA, USA). The assay plates were incubated at 37 °C for 18 h, followed by the addition of 5 μL ONE-Glo luciferase reagent (Promega, Madison, WI, USA) using a Flying Reagent Dispenser (Aurora Discovery, Carlsbad, CA, USA). After 30 min of incubation at room temperature, the luminescence intensity of the assay plates was quantified using a ViewLux plate reader (PerkinElmer, Shelton, CT, USA). The assays were performed three times for each compound concentration. These ERR and PGC/ERR reporter assays were multiplexed with the CellTiter-Fluor Cell Viability Assay (Promega), a fluorescence-based cell viability assay, to assess compound cytotoxicity.\n(§4) The DMSO-only compound plates at the beginning and end of the compound plate stack were used to correct the data set by applying an in-house pattern correction algorithm [90]. The half maximum inhibition values (IC50) for each compound and maximum response (efficacy) values were obtained by fitting the concentration-response curves of each compound to a four-parameter Hill equation [91]. […] For each reading, the activity outcome of a test compound was first categorized by the average curve rank from the triplicate runs and the reproducibility calls. The final activity outcome of each compound was based on the ERR antagonist readout activity and cell viability counter screen."}, "[5]": {"target": "T2, estrogen-related receptor alpha (ERRα) (Homo sapiens, UniProt P11474)", "T2 sequence (P11474 1-423)": "T1 sequence (P11474 1-423)", "assay": "ERR reporter (luciferase) antagonist qHTS assay, ERR-HEK293", "method": "as §2, §3, §4"}}, "note": "Several values for one entry are separate records, joined by “and”; a condition that tells them apart may be missing. Equal entries are not always repeated. Where two headings read alike, the source gives them in different places.", "data": [{"compound": "CC(C)C[C@H](NC(=O)[C@H](CCc1ccccc1)NC(=O)CN1CCOCC1)C(=O)N[C@@H](Cc1ccccc1)C(=O)N[C@@H](CC(C)C)C(=O)[C@@]1(C)CO1", "note": "[Carfilzomib]", "values": [{"measurement": "EC50", "setting": "[1]; follow-up screen, viability, read-out: ERR-HEK293 Follow-Up Viability EC50 (converted)", "result": 274, "unit": "nM"}, {"measurement": "EC50", "setting": "[1]; primary qHTS, viability counter screen, read-out: ERR-HEK293 Primary Viability EC50 (converted)", "result": 178, "unit": "nM"}, {"measurement": "EC50", "setting": "[2]; HEK293, follow-up screen, read-out: PGC/ERR-HEK293 Follow-Up Viability EC50 (converted)", "result": 471, "unit": "nM"}, {"measurement": "EC50", "setting": "[2]; HEK293, primary qHTS, read-out: PGC/ERR-HEK293 Primary Viability EC50 (converted)", "result": 1360, "unit": "nM"}, {"measurement": "Percent inhibition of mRNA gene expression, COX8α", "setting": "COX8α", "result": "39.6% and 39.6 ± 1.81%"}, {"measurement": "Percent inhibition of mRNA gene expression, IDH3α", "setting": "IDH3α", "result": "1.73 ± 0.76", "unit": "%"}, {"measurement": "Percent inhibition of mRNA gene expression, PPARα", "setting": "PPARα", "result": "7.39 ± 4.61", "unit": "%"}, {"measurement": "Percent inhibition of mRNA gene expression, COX4I1", "setting": "COX4I1", "result": "37.8 ± 5.12", "unit": "%"}, {"measurement": "Percent inhibition of mRNA gene expression, Cytochrome C", "setting": "cytochrome c", "result": "44.2% and 44.2 ± 0.70%"}, {"measurement": "activity in the Nrf2-ARE assay", "setting": "[3]", "result": "active agonists"}, {"measurement": "EC50", "setting": "[4]; PGC/ERR-HEK293 Follow-Up EC50, follow-up screen", "result": "189 ± 39.6", "unit": "nM"}, {"measurement": "EC50", "setting": "[4]; PGC/ERR-HEK293 Primary EC50, primary qHTS, 18 h", "result": "61.5 ± 19.8", "unit": "nM"}, {"measurement": "PGC/ERR-HEK293 Follow-Up Efficacy", "setting": "[4]; follow-up screen, negative = antagonism, positive = agonism", "result": "−150 ± 8.02", "unit": "%"}, {"measurement": "activity in the ERR/PGC assay", "setting": "[4]; in words", "result": "antagonism"}, {"measurement": "PGC/ERR-HEK293 Primary Efficacy", "setting": "[4]; primary qHTS, negative = antagonism, positive = agonism", "result": "−121 ± 7.36", "unit": "%"}, {"measurement": "EC50", "setting": "[5]; ERR-HEK293 Follow-Up EC50, follow-up (confirmation) screen, mean ± SD, triplicate", "result": "61.7 ± 7.86", "unit": "nM"}, {"measurement": "EC50", "setting": "[5]; ERR-HEK293 Primary EC50, primary qHTS, 18 h, 15 concentrations, mean ± SD, triplicate", "result": "55.2 ± 3.74", "unit": "nM"}, {"measurement": "ERR-HEK293 Follow-Up Efficacy", "setting": "[5]; follow-up screen, relative to XCT790 = −100%", "result": "−126 ± 10.9", "unit": "%"}, {"measurement": "EC50", "setting": "[5]; potency, ERR antagonist assay, primary screen", "result": 55, "unit": "nM"}, {"measurement": "ERR-HEK293 Primary Efficacy", "setting": "[5]; primary qHTS, relative to XCT790 = −100%, DMSO = 0%", "result": "−107% and −107 ± 2.77%"}]}]}
